In PubChem BioAssay AID1919001 (Molecular Pharmacology Branch, DTP, NCI, 2023):
Several values for one entry are separate records, joined by “and”; a condition that tells them apart may be missing. Identical values can stand only once.

Test system: 699152-130-R-J1-PDC complex spheroid growth
Assay: Anticancer human tumor 699152-130-R-J1-PDC patient-derived pancreatic carcinoma cell line growth inhibition [AhR]
Conditions: for viability, T/C: stronger effect = lower value
How it was run: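 Agents were dosed in half-log steps down from roughly clinical Cmax, or from 10 microM where Cmax was unknown, alone and with AhR antagonists. Read-out: percent test/control growth of tumor spheroids containing HUVEC and MSC stromal cells.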

[1] = curve of first compound, second compound 0.1 µM
[2] = curve of first compound, second compound 0.316 µM
[3] = curve of first compound, second compound 1 µM
[4] = curve of first compound, second compound 3.16 µM
[5] = curve of first compound, second compound 10 µM
[6] = second compound 0.1 µM, first compound 0.0316 µM
[7] = second compound 0.1 µM, first compound 0.1 µM
[8] = second compound 0.1 µM, first compound 0.316 µM
[9] = second compound 0.1 µM, first compound 1 µM
[10] = second compound 0.1 µM, first compound 3.16 µM
[11] = second compound 0.1 µM, first compound 10 µM
[12] = second compound 0.316 µM, first compound 0.0316 µM
[13] = second compound 0.316 µM, first compound 0.1 µM
[14] = second compound 0.316 µM, first compound 0.316 µM
[15] = second compound 0.316 µM, first compound 1 µM
[16] = second compound 0.316 µM, first compound 3.16 µM
[17] = second compound 0.316 µM, first compound 10 µM
[18] = second compound 1 µM, first compound 0.0316 µM
[19] = second compound 1 µM, first compound 0.1 µM
[20] = second compound 1 µM, first compound 0.316 µM
[21] = second compound 1 µM, first compound 1 µM
[22] = second compound 1 µM, first compound 3.16 µM
[23] = second compound 1 µM, first compound 10 µM
[24] = second compound 3.16 µM, first compound 0.0316 µM
[25] = second compound 3.16 µM, first compound 0.1 µM
[26] = second compound 3.16 µM, first compound 0.316 µM
[27] = second compound 3.16 µM, first compound 1 µM
[28] = second compound 3.16 µM, first compound 3.16 µM
[29] = second compound 3.16 µM, first compound 10 µM
[30] = second compound 10 µM, first compound 0.0316 µM
[31] = second compound 10 µM, first compound 0.1 µM
[32] = second compound 10 µM, first compound 0.316 µM
[33] = second compound 10 µM, first compound 1 µM
[34] = second compound 10 µM, first compound 3.16 µM
[35] = second compound 10 µM, first compound 10 µM
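Further: compound exposure lasted 7 days after spheroids had grown for 3 days.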

## COc1cc(C2c3cc4c(cc3C(OC3OC5COC(C)OC5C(O)C3O)C3COC(=O)C23)OCO4)cc(OC)c1O (configuration not stated) + CC(CO)NC(=O)c1cc(-c2ccc(Cl)cc2)nn(-c2cnn(C)c2)c1=O
[1]
  IC50: 9.98 µM
[2]
  IC50: 8.52 µM
[3]
  IC50: > 10 µM
[4]
  IC50: 6.67 µM
[5]
  IC50: 7.75 µM
[6]
  viability, T/C: 101%
[7]
  viability, T/C: 98.3%
[8]
  viability, T/C: 87.8%
[9]
  viability, T/C: 69.4%
[10]
  viability, T/C: 61.9%
[11]
  viability, T/C: 48.6%
[12]
  viability, T/C: 93.7%
[13]
  viability, T/C: 93.7%
[14]
  viability, T/C: 74%
[15]
  viability, T/C: 61.2%
[16]
  viability, T/C: 54.8%
[17]
  viability, T/C: 47.5%
[18]
  viability, T/C: 95.1%
[19]
  viability, T/C: 92.3%
[20]
  viability, T/C: 82.2%
[21]
  viability, T/C: 73.3%
[22]
  viability, T/C: 53.2%
[23]
  viability, T/C: 53.9%
[24]
  viability, T/C: 82.4%
[25]
  viability, T/C: 86%
[26]
  viability, T/C: 69.5%
[27]
  viability, T/C: 65.5%
[28]
  viability, T/C: 59.1%
[29]
  viability, T/C: 45.5%
[30]
  viability, T/C: 77.6%
[31]
  viability, T/C: 82.9%
[32]
  viability, T/C: 79.7%
[33]
  viability, T/C: 57%
[34]
  viability, T/C: 57.1%
[35]
  viability, T/C: 43.3%

## Nc1ccccc1NC(=O)c1ccc(CNC(=O)OCc2cccnc2)cc1
Compound 0.0316 µM
  viability, T/C: 91.4% and 87.2% and 106%
Compound 0.1 µM
  viability, T/C: 96.6% and 89.1% and 109%
Compound 0.316 µM
  viability, T/C: 96.1% and 93.6% and 116%
Compound 1 µM
  viability, T/C: 97.1% and 103% and 95%
Compound 3.16 µM
  viability, T/C: 76.1% and 86% and 93.4%
Compound 10 µM
  viability, T/C: 39.1% and 38.4% and 42.8%
Curve of compound
  IC50: 7.13 µM and 7.65 µM and 8.49 µM

## O=C(C=Cn1cnc(-c2cc(C(F)(F)F)cc(C(F)(F)F)c2)n1)NNc1cnccn1 + Cc1ccccc1N=Nc1ccc(NC(=O)c2ccnn2C)c(C)c1
[1]
  IC50: > 3 µM
[2]
  IC50: > 3 µM
[3]
  IC50: > 3 µM
[4]
  IC50: > 3 µM
[5]
  IC50: > 3 µM
Second compound 0.1 µM, first compound 0.00949 µM
  viability, T/C: 92.5%
Second compound 0.1 µM, first compound 0.03 µM
  viability, T/C: 84.5%
Second compound 0.1 µM, first compound 0.0949 µM
  viability, T/C: 87.8%
Second compound 0.1 µM, first compound 0.3 µM
  viability, T/C: 75.1%
Second compound 0.1 µM, first compound 0.949 µM
  viability, T/C: 78.1%
Second compound 0.1 µM, first compound 3 µM
  viability, T/C: 57.5%
Second compound 0.316 µM, first compound 0.00949 µM
  viability, T/C: 85.5%
Second compound 0.316 µM, first compound 0.03 µM
  viability, T/C: 82%
Second compound 0.316 µM, first compound 0.0949 µM
  viability, T/C: 82.7%
Second compound 0.316 µM, first compound 0.3 µM
  viability, T/C: 79.3%
Second compound 0.316 µM, first compound 0.949 µM
  viability, T/C: 69.1%
Second compound 0.316 µM, first compound 3 µM
  viability, T/C: 58%
Second compound 1 µM, first compound 0.00949 µM
  viability, T/C: 92%
Second compound 1 µM, first compound 0.03 µM
  viability, T/C: 90.8%
Second compound 1 µM, first compound 0.0949 µM
  viability, T/C: 93.2%
Second compound 1 µM, first compound 0.3 µM
  viability, T/C: 78.7%
Second compound 1 µM, first compound 0.949 µM
  viability, T/C: 74.2%
Second compound 1 µM, first compound 3 µM
  viability, T/C: 61.6%
Second compound 3.16 µM, first compound 0.00949 µM
  viability, T/C: 97.6%
Second compound 3.16 µM, first compound 0.03 µM
  viability, T/C: 115%
Second compound 3.16 µM, first compound 0.0949 µM
  viability, T/C: 98.6%
Second compound 3.16 µM, first compound 0.3 µM
  viability, T/C: 69.6%
Second compound 3.16 µM, first compound 0.949 µM
  viability, T/C: 76.4%
Second compound 3.16 µM, first compound 3 µM
  viability, T/C: 66.6%
Second compound 10 µM, first compound 0.00949 µM
  viability, T/C: 120%
Second compound 10 µM, first compound 0.03 µM
  viability, T/C: 112%
Second compound 10 µM, first compound 0.0949 µM
  viability, T/C: 91.7%
Second compound 10 µM, first compound 0.3 µM
  viability, T/C: 77.5%
Second compound 10 µM, first compound 0.949 µM
  viability, T/C: 69.9%
Second compound 10 µM, first compound 3 µM
  viability, T/C: 69.7%

## NS(=O)(=O)OCC1CC(n2ccc3c(NC4CCc5ccccc54)ncnc32)CC1O (configuration not stated) + Cc1cncc(-c2nc(NCCc3c[nH]c4ccccc34)c3ncn(C(C)C)c3n2)c1
[1]
  IC50: 0.898 µM
[2]
  IC50: 0.837 µM
[3]
  IC50: 0.889 µM
[4]
  IC50: 0.512 µM
[5]
  IC50: < 0.0316 µM
[6]
  viability, T/C: 112%
[7]
  viability, T/C: 128%
[8]
  viability, T/C: 145%
[9]
  viability, T/C: 41.8%
[10]
  viability, T/C: 21.5%
[11]
  viability, T/C: 20.9%
[12]
  viability, T/C: 114%
[13]
  viability, T/C: 132%
[14]
  viability, T/C: 147%
[15]
  viability, T/C: 35.2%
[16]
  viability, T/C: 18.9%
[17]
  viability, T/C: 21.4%
[18]
  viability, T/C: 131%
[19]
  viability, T/C: 156%
[20]
  viability, T/C: 149%
[21]
  viability, T/C: 39.1%
[22]
  viability, T/C: 18.8%
[23]
  viability, T/C: 18.3%
[24]
  viability, T/C: 104%
[25]
  viability, T/C: 103%
[26]
  viability, T/C: 74.2%
[27]
  viability, T/C: 16.5%
[28]
  viability, T/C: 8.14%
[29]
  viability, T/C: 9.66%
[30]
  viability, T/C: 23.7%
[31]
  viability, T/C: 17.8%
[32]
  viability, T/C: 10.1%
[33]
  viability, T/C: 5.16%
[34]
  viability, T/C: 4.2%
[35]
  viability, T/C: 3.67%
